pIC50: −log10 of the molar value. Like-named read-outs stand apart in the source and are kept apart here.
Columns and labels:
[1] = system: CD69 expression on CD19+ B cells in human whole blood stimulated with anti-human IgD; assay: In Vitro whole blood CD69 Assay; type: cell-based; settings: human heparinized whole blood, anti-human IgD stimulation overnight, percentage of CD19+ B cells expressing CD69, flow cytometry, read-out: IC50
BTK = BTK (Homo sapiens (Human), UniProt Q06187); assay: In Vitro BTK Kinase Assay: Btk-PolyGAT-LS Assay; type: biochemical; settings: BTK enzyme 0.25 nM, ATP 10 μM, polyGAT 100 nM, 30 minutes incubation, TRF readout; read-out: IC50
Sequence of BTK (Q06187 whole entry): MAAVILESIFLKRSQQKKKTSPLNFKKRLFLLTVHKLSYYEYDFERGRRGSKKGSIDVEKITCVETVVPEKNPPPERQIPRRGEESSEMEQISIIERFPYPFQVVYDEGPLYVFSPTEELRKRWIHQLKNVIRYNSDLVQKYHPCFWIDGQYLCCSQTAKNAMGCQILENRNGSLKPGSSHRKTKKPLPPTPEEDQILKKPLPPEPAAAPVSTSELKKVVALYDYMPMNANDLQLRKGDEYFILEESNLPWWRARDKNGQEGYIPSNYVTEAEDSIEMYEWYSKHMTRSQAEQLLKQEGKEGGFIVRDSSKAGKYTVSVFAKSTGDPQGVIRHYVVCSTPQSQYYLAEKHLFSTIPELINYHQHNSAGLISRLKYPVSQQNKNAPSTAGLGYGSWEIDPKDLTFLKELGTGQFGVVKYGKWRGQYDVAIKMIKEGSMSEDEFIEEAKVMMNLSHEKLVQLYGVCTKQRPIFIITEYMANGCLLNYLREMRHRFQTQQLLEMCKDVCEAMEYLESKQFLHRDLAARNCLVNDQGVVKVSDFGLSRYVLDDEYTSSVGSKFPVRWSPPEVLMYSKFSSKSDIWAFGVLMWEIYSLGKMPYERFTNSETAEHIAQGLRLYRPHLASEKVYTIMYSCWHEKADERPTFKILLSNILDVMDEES
Procedure, shortened: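 Human BTK activity was measured with final 10 μM ATP and 100 nM polyGAT substrate in pH 7.5 Tris buffer with 10 mM MgCl2, DTT, Triton X-100 and casein.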

Structure (SMILES)	pIC50 ([1]; Homo sapiens, B-cell)	pIC50 (BTK)	pIC50 [1]	pIC50 ([1]; listed as 26 E1)
C=CC(=O)N(C)[C@H]1C[C@@H](Oc2nc(-c3cnn(C)c3)cn3ncc(F)c23)C1 [Example 63, N-((cis)-3-((3-fluoro-6-(1-methyl-1H-pyrazol-4-yl)pyrazolo[1,5-a]pyrazin-4-yl)oxy)cyclobutyl)-N-methylacrylamide]	< 5.00	> 9.00		
C=CC(=O)N(C1CC1)[C@H]1C[C@@H](Oc2nc(-c3cnn(C)c3)cn3nccc23)C1 [Example 101, N-cyclopropyl-N-((cis)-3-((6-(1-methyl-1H-pyrazol-4-yl)pyrazolo[1,5-a]pyrazin-4-yl)oxy)cyclobutyl)acrylamide]	5.00 to 6.00	> 9.00		
C=CC(=O)N[C@H]1C[C@@](C)(Oc2nc(-c3cnc(C)s3)cn3nccc23)C1 [Example 186, N-((1s,3s)-3-methyl-3-((6-(2-methylthiazol-5-yl)pyrazolo[1,5-a]pyrazin-4-yl)oxy)cyclobutyl)acrylamide]	> 6.00	> 9.00		
C=CS(=O)(=O)N1CCC[C@H](Oc2nc(-c3cnn(C)c3)cn3nccc23)C1 [Example 6, (S)-6-(1-methyl-1H-pyrazol-4-yl)-4-((1-(vinylsulfonyl)piperidin-3-yl)oxy)pyrazolo[1,5-a]pyrazine]	< 5.00	6.00 to 8.00		
C=CC(=O)N1CC[C@@H]2[C@@H](Oc3nc(-c4cnn(C)c4)cn4nccc34)C(C)(C)[C@@H]21 [Example 169, 1-((1R,5S,6R)-7,7-dimethyl-6-((6-(1-methyl-1H-pyrazol-4-yl)pyrazolo[1,5-a]pyrazin-4-yl)oxy)-2-azabicyclo[3.2.0]heptan-2-yl)prop-2-en-1-one]	5.00 to 6.00	8.00 to 9.00		
C=CC(=O)N1CCCC[C@H](Oc2nc(-c3cnn(C)c3)cn3nccc23)C1 [Example 55, (S)-1-(3-((6-(1-methyl-1H-pyrazol-4-yl)pyrazolo[1,5-a]pyrazin-4-yl)oxy)azepan-1-yl)prop-2-en-1-one]	< 5.00	6.00 to 8.00		
C=CS(=O)(=O)N1CC[C@@H](Oc2nc(-c3cnn(C)c3)cn3nccc23)C1 [Example 12, (R)-6-(1-methyl-1H-pyrazol-4-yl)-4-((1-(vinylsulfonyl)pyrrolidin-3-yl)oxy)pyrazolo[1,5-a]pyrazine]	< 5.00	8.00 to 9.00		
CC#CC(=O)N(CC(F)F)[C@H]1C[C@@](C)(Oc2nc(-c3cnn(C)c3)cn3nccc23)C1 [Example 233, N-(2,2-difluoroethyl)-N-((1s,3s)-3-methyl-3-((6-(1-methyl-1H-pyrazol-4-yl)pyrazolo[1,5-a]pyrazin-4-yl)oxy)cyclobutyl)but-2-ynamide]	> 6.00	> 9.00		
C=CC(=O)N1C[C@H]2C[C@H](Oc3nc(-c4cnn(C)c4)cn4nccc34)C[C@H]2C1 [Example 174, 1-((3aR,5s,6aS)-5-((6-(1-methyl-1H-pyrazol-4-yl)pyrazolo[1,5-a]pyrazin-4-yl)oxy)hexahydrocyclopenta[c]pyrrol-2(1H)-yl)prop-2-en-1-one]	> 6.00	> 9.00		
C#CC(=O)N1CC[C@@H](Oc2nc(-c3cnn(C)c3)cc3nccn23)C1 [Example 39, (R)-1-(3-((7-(1-methyl-1H-pyrazol-4-yl)imidazo[1,2-c]pyrimidin-5-yl)oxy)pyrrolidin-1-yl)prop-2-yn-1-one]	5.00 to 6.00	6.00 to 8.00		
CN[C@H]1C[C@@](C)(Oc2nc(-c3cnn(C)c3)cn3nccc23)C1(C)C (racemic) [Example 139, racemic (1S,3R)—N,2,2,3-tetramethyl-3-((6-(1-methyl-1H-pyrazol-4-yl)pyrazolo[1,5-a]pyrazin-4-yl)oxy)cyclobutan-1-amine]		> 9.00	> 6.00	
C=CC(=O)N1CCOC[C@H](Oc2nc(-c3cnn(C)c3)cn3nccc23)C1 [Example 58, (R)-1-(6-((6-(1-methyl-1H-pyrazol-4-yl)pyrazolo[1,5-a]pyrazin-4-yl)oxy)-1,4-oxazepan-4-yl)prop-2-en-1-one]	< 5.00	6.00 to 8.00		
CC#CC(=O)N1CC2(C1)CC(C)(Oc1nc(-c3cnn(C)c3)cn3ncc(F)c13)C2 [Example 86, 1-(6-((3-fluoro-6-(1-methyl-1H-pyrazol-4-yl)pyrazolo[1,5-a]pyrazin-4-yl)oxy)-6-methyl-2-azaspiro[3.3]heptan-2-yl)but-2-yn-1-one]	> 6.00	8.00 to 9.00		
C=CC(=O)N1CCCC(Oc2nc(-c3cnn(C)c3)cn3ncnc23)CC1 (stereo not shown) [Example 57, 1-(4-((6-(1-methyl-1H-pyrazol-4-yl)-[1,2,4]triazolo[1,5-a]pyrazin-8-yl)oxy)azepan-1-yl)prop-2-en-1-one]	5.00 to 6.00	8.00 to 9.00		
C=CC(=O)N1[C@H]2CC[C@@H]1[C@H](Oc1nc(-c3cnn(C)c3)cn3nccc13)C2 [Example 234, 1-((1R,2R,4S)-2-((6-(1-methyl-1H-pyrazol-4-yl)pyrazolo[1,5-a]pyrazin-4-yl)oxy)-7-azabicyclo[2.2.1]heptan-7-yl)prop-2-en-1-one]	5.00 to 6.00	> 9.00		
C=CS(=O)(=O)N1CCC(CNc2nc(-c3cnn(C)c3)cn3nccc23)CC1 [Example 19, 6-(1-methyl-1H-pyrazol-4-yl)-N-((1-(vinylsulfonyl)piperidin-4-yl)methyl)pyrazolo[1,5-a]pyrazin-4-amine]	> 6.00	> 9.00		
C=CC(=O)N(C)[C@@H]1CC[C@H](Oc2nc(-c3cnn(C)c3)cn3ncc(-c4ccccc4)c23)C1 [Example 173, N-methyl-N-((1R,3S)-3-(6-(1-methylpyrazol-4-yl)-3-phenyl-pyrazolo[1,5-a]pyrazin-4-yl)oxycyclopentyl)prop-2-enamide]	5.00 to 6.00	8.00 to 9.00		
C=CC(=O)N(C)[C@H]1C[C@H](Oc2nc(-c3cnn(C)c3)cn3ncc(C(F)F)c23)C1 [Example 64, N-((trans)-3-((3-(difluoromethyl)-6-(1-methyl-1H-pyrazol-4-yl)pyrazolo[1,5-a]pyrazin-4-yl)oxy)cyclobutyl)-N-methylacrylamide]	> 6.00	8.00 to 9.00		
Cn1cc(-c2cn3nccc3c(O[C@]3(C)C[C@H](NC(=O)/C=C/C(F)(F)F)C3)n2)cn1 [Example 231, (E)-4,4,4-trifluoro-N-((1s,3s)-3-methyl-3-((6-(1-methyl-1H-pyrazol-4-yl)pyrazolo[1,5-a]pyrazin-4-yl)oxy)cyclobutyl)but-2-enamide]	> 6.00	> 9.00		
C=CC(=O)N(C)[C@H]1C[C@@](C)(Oc2nc(-c3cnn(C)c3)cn3ncc(F)c23)C1 [Example 211, N-((1s,3s)-3-((3-fluoro-6-(1-methyl-1H-pyrazol-4-yl)pyrazolo[1,5-a]pyrazin-4-yl)oxy)-3-methylcyclobutyl)-N-methylacrylamide]	> 6.00	> 9.00		
C=CC(=O)N1CCCC[C@@H](Oc2nc(-c3cnn(C)c3)cn3nccc23)C1 [Example 56, 1-[(3R)-3-[6-(1-methylpyrazol-4-yl)pyrazolo[1,5-a]pyrazin-4-yl]oxyazepan-1-yl]prop-2-en-1-one]	< 5.00	8.00 to 9.00		
C=CC(=O)N(C)[C@H]1C[C@](Oc2nc(-c3cnn(C)c3)cn3nccc23)(C2CC2)C1 [Example 103, N-((1s,3s)-3-cyclopropyl-3-((6-(1-methyl-1H-pyrazol-4-yl)pyrazolo[1,5-a]pyrazin-4-yl)oxy)cyclobutyl)-N-methylacrylamide]		8.00 to 9.00	5.00 to 6.00	
C=CC(=O)N1CCC[C@@H](Oc2nc(-c3cnn(C)c3)cn3ncc(C#N)c23)CC1 [Example 59, (R)-4-((1-acryloylazepan-4-yl)oxy)-6-(1-methyl-1H-pyrazol-4-yl)pyrazolo[1,5-a]pyrazine-3-carbonitrile]	> 6.00	> 9.00		
C#CC(=O)NCC1CCCCN1c1nc(-c2cnn(C)c2)cn2nccc12 (single isomer, unassigned) [Example 26 E1, N-[[1-[6-(1-methylpyrazol-4-yl)pyrazolo[1,5-a]pyrazin-4-yl]-2-piperidyl]methyl]prop-2-ynamide]		6.00 to 8.00		< 5.00
C=CC(=O)N(C)[C@@H]1COC[C@H](Oc2nc(-c3cnn(C)c3)cn3nccc23)C1 (racemic) [Example 96, N-methyl-N-((cis)-5-((6-(1-methyl-1H-pyrazol-4-yl)pyrazolo[1,5-a]pyrazin-4-yl)oxy)tetrahydro-2H-pyran-3-yl)acrylamide]	> 6.00	> 9.00		
CC#CC(=O)N(C)[C@@H]1CC[C@H]2C[C@@]2(Oc2nc(-c3cnn(C)c3)cn3nccc23)C1 (single isomer, unassigned) [Example 115]	5.00 to 6.00	8.00 to 9.00		
CN(C)C/C=C/C(=O)N(C)[C@H]1CCC[C@@H](Oc2nc(-c3cnn(C)c3)cn3ncc(F)c23)C1 [Example 93, (E)-4-(dimethylamino)-N-((1S,3R)-3-((3-fluoro-6-(1-methyl-1H-pyrazol-4-yl)pyrazolo[1,5-a]pyrazin-4-yl)oxy)cyclohexyl)-N-methylbut-2-enamide]	> 6.00	8.00 to 9.00		
C=CC(=O)N1CC[C@]2(C1)C[C@@](C)(Oc1nc(-c3cnn(C)c3)cn3nccc13)C2 [Example 213, rac-1-((2r,4s)-2-methyl-2-((6-(1-methyl-1H-pyrazol-4-yl)pyrazolo[1,5-a]pyrazin-4-yl)oxy)-6-azaspiro[3.4]octan-6-yl)prop-2-en-1-one]		8.00 to 9.00	5.00 to 6.00	
C=CC(=O)N1CCO[C@](C)(COc2nc(-c3cnn(C)c3)cn3nccc23)C1 (single isomer, unassigned) [Example 117, (S) or (R)-1-(2-methyl-2-(((6-(1-methyl-1H-pyrazol-4-yl)pyrazolo[1,5-a]pyrazin-4-yl)oxy)methyl)morpholino)prop-2-en-1-one]	> 6.00	8.00 to 9.00		

Source: patent publication US20240083900A1, “PYRAZOLO[1,5-A]PYRAZINE DERIVATIVES AS BTK INHIBITORS” (BIOGEN MA INC., priority 2020, published 2024)
